Target: T1, human GPR84 receptor (Homo sapiens, UniProt Q9NQS5)
T1 construct: frozen aliquots prepared by acCELLerate; host or cells: CHO-K1
Assay: cAMP HTRF assay for identification of cellular GPR84 antagonists
Format: cell-based
Conditions: CHO-K1 cells stably expressing human GPR84; Forskolin plus agonist 6-OAU; cAMP HTRF readout; average or median values
How it was run: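 CHO-K1 cells stably expressing human GPR84, preincubated with compound 30 min at room temperature, then stimulated 30 min with 6-OAU (EC80) plus forskolin (EC90). cAMP measured by HTRF 665/620 nm ratio after 60 min lysis; 11 concentrations from 20 μM to 0.07 nM in duplicate, IC50 by 4-parameter fit.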

T1 sequence (Q9NQS5 whole entry): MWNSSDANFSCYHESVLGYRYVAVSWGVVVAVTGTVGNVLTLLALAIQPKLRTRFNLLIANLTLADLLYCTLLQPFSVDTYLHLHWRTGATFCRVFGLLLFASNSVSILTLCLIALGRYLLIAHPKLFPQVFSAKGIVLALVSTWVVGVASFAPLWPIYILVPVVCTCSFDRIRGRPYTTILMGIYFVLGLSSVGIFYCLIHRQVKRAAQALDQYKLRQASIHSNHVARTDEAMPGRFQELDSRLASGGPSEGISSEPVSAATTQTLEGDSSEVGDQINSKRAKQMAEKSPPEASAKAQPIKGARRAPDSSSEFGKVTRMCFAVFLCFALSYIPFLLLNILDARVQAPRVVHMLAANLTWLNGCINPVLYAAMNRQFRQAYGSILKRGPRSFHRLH

Row | SMILES | IC50 [nM]
1 | Cc1c(C(=O)NCCCO)oc2c1-c1nn(Cc3ccc(Cl)cc3)cc1CC2 [Example 64, 2-[(4-chlorophenyl)methyl]-N-(3-hydroxypropyl)-8-methyl-4,5-dihydro-2H-furo[2,3-g]indazole-7-carboxamide] | 6680
2 | CCN(CC)C(=O)CNC(=O)c1oc2c(c1C)-c1nn(Cc3ccc(Cl)cc3)cc1CC2 [Example 31, 2-[(4-chlorophenyl)methyl]-N-[2-(diethylamino)-2-oxoethyl]-8-methyl-4,5-dihydro-2H-furo[2,3-g]indazole-7-carboxamide] | 2530
3 | Cc1c(C(=O)N2CCc3ccccc3C2)oc2c1-c1nn(Cc3ccc(Cl)cc3)cc1CC2 [Example 61, {2-[(4-chlorophenyl)methyl]-8-methyl-4,5-dihydro-2H-furo[2,3-g]indazol-7-yl}(3,4-dihydroisoquinolin-2(1H)-yl)methanone] | 6020
4 | Cc1c(C(=O)N(C)Cc2ccncc2)oc2c1-c1nn(Cc3ccc(Cl)cc3)cc1CC2 [Example 66, 2-[(4-chlorophenyl)methyl]-/,8-dimethyl-N-[(pyridin-4-yl)methyl]-4,5-dihydro-2H-furo[2,3-g]indazole-7-carboxamide] | 7590
5 | CC(=O)N1CCN(C(=O)c2oc3c(c2C)-c2nn(Cc4ccc(Cl)cc4)cc2CC3)CC1 [Example 62, 1-(4-{2-[(4-chlorophenyl)methyl]-8-methyl-4,5-dihydro-2H-furo[2,3-g]indazole-7-carbonyl}piperazin-1-yl)ethan-1-one] | 6100
6 | Cc1c(C(=O)N2CCN(S(C)(=O)=O)CC2)oc2c1-c1nn(Cc3ccc(Cl)cc3)cc1CC2 [Example 67, {2-[(4-chlorophenyl)methyl]-8-methyl-4,5-dihydro-2H-furo[2,3-g]indazol-7-yl}[4-(methanesulfonyl)piperazin-1-yl]methanone] | 7830

Compounds with a lower IC50, results first:

Row | IC50 [nM] | SMILES
7 | 230 | Cc1c(C(=O)NCCN2CCN(C)CC2)oc2c1-c1nn(Cc3ccccc3Cl)cc1CC2 [Example 11, 2-[(2-chlorophenyl)methyl]-8-methyl-N-[2-(4-methylpiperazin-1-yl)ethyl]-4,5-dihydro-2H-furo[2,3-g]indazole-7-carboxamide]
8 | 780 | Cc1c(C(=O)NCCN2CCCCC2)oc2c1-c1nn(Cc3cccc(Cl)c3)cc1CC2 [Example 19, 2-[(3-chlorophenyl)methyl]-8-methyl-N-[2-(piperidin-1-yl)ethyl]-4,5-dihydro-2H-furo[2,3-g]indazole-7-carboxamide]
9 | 720 | Cc1c(C(=O)NCc2ccc(C(N)=O)cc2)oc2c1-c1nn(Cc3ccc(Cl)cc3)cc1CC2 [Example 42, N-[(4-carbamoylphenyl)methyl]-2-[(4-chlorophenyl)methyl]-8-methyl-4,5-dihydro-2H-furo[2,3-g]indazole-7-carboxamide]
10 | 300 | Cc1c(C(=O)NCCN2CCN(C)CC2)oc2c1-c1nn(Cc3ccc(Cl)cc3)cc1CC2 [Example 23, 2-[(4-chlorophenyl)methyl]-8-methyl-N-[2-(4-methylpiperazin-1-yl)ethyl]-4,5-dihydro-2H-furo[2,3-g]indazole-7-carboxamide]
11 | 280 | Cc1c(C(=O)NCc2ccon2)oc2c1-c1nn(Cc3ccc(F)cc3Cl)cc1CC2 [Example 94]
12 | 750 | Cc1c(C(=O)NC[C@@H]2CCCO2)oc2c1-c1nn(C(C)c3ccccc3F)cc1CC2 (mixture of isomers) [Example 95, 2-[(1RS)-1-(2-fluorophenyl)ethyl]-8-methyl-N-[(2S)-tetrahydrofuran-2-ylmethyl]-4,5-dihydro-2H-furo[2,3-g]indazole-7-carboxamide]
13 | 2130 | Cc1c(C(=O)NCC(N)=O)oc2c1-c1nn(Cc3ccc(Cl)cc3)cc1CC2 [Example 48, N-(2-amino-2-oxoethyl)-2-[(4-chlorophenyl)methyl]-8-methyl-4,5-dihydro-2H-furo[2,3-g]indazole-7-carboxamide]

From patent US20240239804A1, “FUROINDAZOLE DERIVATIVES AS ANTAGONISTS OR INHIBITORS OF GPR84” (Bayer Aktiengesellschaft, priority 2021, published 2024)
